# According to the RepoRT retention time repository (doi:10.1016/j.aca.2011.01.006):
# Assay: Waters SunFire C18, 150 × 2.1 mm, 3.5 µm, 35 °C, 0.3 mL/min, estimated dead time 1.1 min; A: water + 0.1% formic acid; B: acetonitrile + 0.1% formic acid; gradient (min/%B) 0/20 5/20 20/50 25/100
# Details: stereoisomer not certain
row,LC retention time [min],Structure (SMILES)
1,15.8,CN1C(C(=O)Nc2ccc(O)cn2)=C(O)c2ccccc2S1(=O)=O
2,15.1,COC(=O)C1CC2=CC(=O)CCC2(C)C23OC2CC2(C)C(CCC24CCC(=O)O4)C13 (configuration not stated)
3,3.4,CCCc1nc(C)c2c(=O)[nH]c(-c3cc(S(=O)(=O)N4CCN(CC)CC4)ccc3OCC)nn12
4,5.1,CN(C)CCOC(c1ccccc1)c1ccccc1
5,1.4,CC(C)[N+]1(C)C2CCC1CC(OC(=O)C(CO)c1ccccc1)C2 (configuration not stated)
6,19.8,CCCCC1C(=O)N(c2ccccc2)N(c2ccc(O)cc2)C1=O (configuration not stated)
7,15.2,O=C1NC(=O)N(N=Cc2ccc(-c3ccc([N+](=O)[O-])cc3)o2)C1O (configuration not stated)
8,15.5,O=C1CN(N=Cc2ccc(-c3ccc([N+](=O)[O-])cc3)o2)C(=O)N1
9,3.5,CC(=O)N=c1sc(S(N)(=O)=O)nn1C
10,24,CCCCC1C(=O)N(c2ccccc2)N(c2ccccc2)C1=O
11,20.1,CCCC1OC2CC3C4CCC5=CC(=O)C=CC5(C)C4C(O)CC3(C)C2(C(=O)CO)O1 (configuration not stated)
12,2,Cn1cnc2c1c(=O)[nH]c(=O)n2C
13,16.8,CS(=O)(=O)c1ccc(C2=C(c3ccccc3)C(=O)OC2)cc1
14,18.5,Cc1onc(-c2ccccc2)c1-c1ccc(S(N)(=O)=O)cc1
15,19.3,CC(C(=O)O)c1cccc(C(=O)c2ccccc2)c1 (configuration not stated)
16,2.4,CCN(CC)C(=O)c1cccnc1
17,1.9,CN(C)CCN(Cc1ccccc1)c1ccccn1
18,14.6,CC1CC2C(C(O)CC3(C)C2CCC3(O)C(=O)CO)C2(C)C=CC(=O)C=C12 (configuration not stated)
19,2.2,C[N+]1(CCC(O)(c2ccccc2)c2cccs2)CCOCC1 (configuration not stated)
20,6.4,COc1ccccc1OCC(O)COC(N)=O (configuration not stated)
21,2.4,Cn1c(=O)c2c(ncn2C)n(C)c1=O
22,1.8,Cc1cccc(C)c1NC(=O)C1CCCCN1C (configuration not stated)
23,14.7,O=C1NC(=O)C(c2ccccc2)(c2ccccc2)N1
24,9.6,CC[N+]1(CC)CCC(=C(c2ccccc2)c2ccccc2)C1C (configuration not stated)
25,9.6,CN(C)CCCN1c2ccccc2CCc2ccccc21
26,1.8,CC(C)(C)NCC(O)COc1nsnc1N1CCOCC1 (configuration not stated)
27,2.7,COc1ccc2nc(S(=O)Cc3ncc(CO)c(OC)c3C)[nH]c2c1 (configuration not stated)

row,LC retention time [min],Structure (SMILES)
1,2.6,Cc1c(NC=O)c(=O)n(-c2ccccc2)n1C
2,11.1,CCN(CC)CCOC(=O)C(Cc1cccc2ccccc12)CC1CCCO1 (configuration not stated)
3,12.3,CCOC(=O)c1ccc(N)cc1
4,20.7,CCCCNc1cc(C(=O)O)cc(S(N)(=O)=O)c1Oc1ccccc1
5,22.6,COc1cc(CNC(=O)CCCCC=CC(C)C)ccc1O
6,2.3,CC(=O)Nc1nnc(S(N)(=O)=O)s1
7,2,COc1cc(OC)c(C(=O)CCCN2CCCC2)c(OC)c1
8,20.4,CC1(C)OC(=O)C(OCC2CC2)=C1c1ccc(S(C)(=O)=O)cc1
9,15.2,CN1C(C(=O)Nc2ccccn2)=C(O)c2ccccc2S1(=O)=O
10,8.8,CN(C)CCCN1c2ccccc2Sc2ccccc21
11,4.3,CCC1(c2ccccc2)C(=O)NCNC1=O
12,4.2,CCCCOc1cc(C(=O)OCCN(CC)CC)ccc1N
13,1.9,Cn1c(=O)c2c(ncn2CC(O)CO)n(C)c1=O (configuration not stated)
14,1.7,CN1CC(O)c2cc(N=NC(N)=O)c(O)cc21 (configuration not stated)
15,12.6,CC12CCC(=O)C=C1CCC1C2C(O)CC2(C)C1CCC2(O)C(=O)CO (configuration not stated)
16,5,COc1ccccc1OCC(O)CO (configuration not stated)
17,21.8,CCC(=O)NS(=O)(=O)c1ccc(-c2c(-c3ccccc3)noc2C)cc1
18,9.9,CN(C)CCCOc1nn(Cc2ccccc2)c2ccccc12
19,4.1,Cc1cc(=O)n(-c2ccccc2)n1C
20,21.9,CS(=O)(=O)Nc1ccc([N+](=O)[O-])cc1Oc1ccccc1
21,4.2,COc1ccc2nc(S(=O)Cc3ncc(C)c(OC)c3C)[nH]c2c1 (configuration not stated)
22,2,COc1ccc(CN(CCN(C)C)c2ccccn2)cc1
23,16.3,O=C(c1ccccc1)c1ccc2n1CCC2C(=O)O (configuration not stated)
24,8.7,CC(=O)c1ccc2c(c1)N(CCCN(C)C)c1ccccc1S2
25,3,CCC1(c2cnc[nH]2)Cc2ccccc2C1
26,21.3,CCCN(CCC)S(=O)(=O)c1ccc(C(=O)O)cc1
27,9,CC[N+](C)(CC)CCOC(=O)C(O)(c1ccccc1)C1CCCCC1 (configuration not stated)

row,LC retention time [min],Structure (SMILES)
1,10.3,CN(C)CCC=C1c2ccccc2CCc2ccccc21
2,10,CCN(CC)CCOCCOC(=O)C1(c2ccccc2)CCCC1
3,1.8,CCN(CC)CC(=O)Nc1c(C)cccc1C
4,12.4,CC12C=CC(=O)C=C1CCC1C2C(=O)CC2(C)C1CCC2(O)C(=O)CO (configuration not stated)
5,2.9,CCCCN1CCCCC1C(=O)Nc1c(C)cccc1C (configuration not stated)
6,22,CC(=O)SC1CC2=CC(=O)CCC2(C)C2CCC3(C)C(CCC34CCC(=O)O4)C12 (configuration not stated)
7,8.2,CCCc1nn(C)c2c(=O)[nH]c(-c3cc(S(=O)(=O)N4CCN(C)CC4)ccc3OCC)nc12
8,8.5,Cc1cccc(Nc2ccncc2S(=O)(=O)NC(=O)NC(C)C)c1
9,12.1,CCCn1cnc2c1c(=O)n(CCCCC(C)=O)c(=O)n2C
10,21.4,Cc1cc(NC(=O)C2=C(O)c3ccccc3S(=O)(=O)N2C)no1
11,24,CC(C)(C)C(=O)SCC(=O)C1(O)CCC2C3CCC4=CC(=O)CCC4(C)C3C(O)CC21C (configuration not stated)
12,15.1,CC1CC2C3CCC4=CC(=O)C=CC4(C)C3C(=O)CC2(C)C1(O)C(=O)CO (configuration not stated)
13,2.42,Cn1c(=O)c2c(ncn2CC(=O)O)n(C)c1=O
14,12.3,CC12C=CC(=O)C=C1CCC1C2C(O)CC2(C)C1CCC2(O)C(=O)CO (configuration not stated)
15,9.8,CC(C)[N+](C)(CCOC(=O)C1c2ccccc2Oc2ccccc21)C(C)C
16,2.9,Nc1nc(N)c2nc(-c3ccccc3)c(N)nc2n1
17,4.9,CCCCNc1ccc(C(=O)OCCN(C)C)cc1
18,9,CN1C(C(=O)Nc2ccccn2)=C(O)c2sccc2S1(=O)=O
19,17.4,CN1CC(=O)N2C(Cc3c([nH]c4ccccc34)C2c2ccc3c(c2)OCO3)C1=O (configuration not stated)
20,2,Cn1c(=O)c2c(ncn2CCO)n(C)c1=O
21,16.5,CC1(C)OC2CC3C4CCC5=CC(=O)C=CC5(C)C4C(O)CC3(C)C2(C(=O)CO)O1 (configuration not stated)
22,22,CC12CCC(=O)C=C1C=CC1C2CCC2(C)C1CCC21CCC(=O)O1 (configuration not stated)
23,2.9,CN1CCOC(c2ccccc2)c2ccccc2C1 (configuration not stated)
24,5.4,CC(=O)CCCCn1c(=O)c2c(ncn2C)n(C)c1=O
25,10.6,COc1ccc(CCN(C)CCCC(C#N)(c2ccc(OC)c(OC)c2)C(C)C)cc1OC (configuration not stated)
26,1.9,Cn1c(=O)c2[nH]cnc2n(C)c1=O

row,Structure (SMILES),LC retention time [min]
1,CCCCCCCCC(=O)NCc1ccc(O)c(OC)c1,22.4
2,CCCCCc1cc(O)c2c(c1)OC(C)(C)C1CCC(C(=O)O)=CC21 (configuration not stated),25.1
3,CC(C)c1c(CN(C)C(C)Cc2ccccc2)n(C)n(-c2ccccc2)c1=O (configuration not stated),10.8
4,CCCC[N+]1(C)C2CC(OC(=O)C(CO)c3ccccc3)CC1C1OC12 (configuration not stated),2.3
5,N=C1NC(=O)C(c2ccccc2)O1 (configuration not stated),3.4
6,CCCC(Cc1ccccc1)N1CCCC1 (configuration not stated),2.9
7,CC(C)[N+](C)(CCC(C(N)=O)(c1ccccc1)c1ccccc1)C(C)C,3.4
8,C=CCC1(O)CCC2C3CCC4=CC(=O)CCC4=C3C=CC21C (configuration not stated),22.1
9,CCC1(c2ccccc2)C(=O)NC(=O)NC1=O,4.9
10,CCOC(=O)C1(c2ccccc2)CCN(C)CC1,2.2
11,Cc1cccc(C(C)c2cnc[nH]2)c1C (configuration not stated),2.8
12,CC12CCC(=O)C=C1C=CC1C2CCC2(C)C1CCC2(O)CCC(=O)O (configuration not stated),16.1
13,CC[N+]1(C)CCCC(OC(=O)C(O)(c2ccccc2)c2ccccc2)C1 (configuration not stated),3.4
14,C[N+]1(C)CCCC(OC(=O)C(O)(c2ccccc2)c2ccccc2)C1 (configuration not stated),3
15,CN1C2CCC1C(C(=O)O)C(OC(=O)c1ccccc1)C2 (configuration not stated),2.6
16,CCC1(O)CCC2C3CCC4=CC(=O)CCC4=C3C=CC21CC (configuration not stated),22.9
17,C[N+]12CCC(CC1)C(OC(=O)C(O)(c1ccccc1)c1ccccc1)C2 (configuration not stated),3.4
18,Cc1cccc(C)c1NC1=NCCCS1,1.8
19,CCN(CCO)CCn1c(Cc2ccccc2)nc2c1c(=O)n(C)c(=O)n2C,1.5
20,Oc1ccc2c(c1)C13CCCCC1(O)C(C2)N(CC1CCC1)CC3 (configuration not stated),2.5
21,COC(=O)C(c1ccccc1)C1CCCCN1 (configuration not stated),1.8
22,COc1cccc(C2(O)CCCCC2CN(C)C)c1 (configuration not stated),1.9
